Assay results as given in patent US12498382B2, “Biomarkers for vitiligo” (INCYTE CORPORATION, priority 2019, dated 2025).

Tested on: HaCaT cells
Experiment: Normalized expression of target genes in HaCaT cells stimulated with TNFα and IFNγ in presence/absence of JAK inhibitors (QuantiGene Plex)
Assay type: cell-based, human
Conditions: for MFI, normalized expression of IYK2: gene IYK2; for MFI, normalized expression of IYK2 / MFI, normalized expression of TNF / MFI, normalized expression of VEGFA: HaCaT, normalized to HPRT1, mean ± standard error; for MFI, normalized expression of TNF: gene TNF; for MFI, normalized expression of VEGFA: gene VEGFA
Experimental: Transformed human keratinocyte (HaCaT) cells were purchased from AddexBio (Catalog #T0020001) and cultured as outlined in Example 5. […] After 48 hours, cell culture media was removed from 24 well plates and replaced with 250 uL of media containing serial diluted drug, then incubated for 15 minutes at 37° C./5% CO2. After drug incubation, 250 uL of combinatory stimulation containing Recombinant Human Interferon gamma (R&D Systems, Catalog #285-IF-100) and Recombinant Human Tumor Necrosis Factor alpha (R&D Systems, Catalog #210-TA-020) was added to plates. The final concentration of Recombinant Human Interferon gamma and Recombinant Human Tumor Necrosis Factor alpha was 25 ng/mL of each cytokine. Cytokine stimulation added to wells containing drug brought the final concentrations for each drug treatment to 25 nM, 50 nM, 100 nM, and 200 nM. Treated plates were mixed by gentle agitation for 30 seconds then incubated for 24 hours at 37° C./5% CO2. At the end of the 24 hour incubation media was immediately removed from each plate.
RNA was isolated from HaCaT cells using the QuantiGene Plex Assay reagents and protocols (Affymetrix, Catalog #QGP-232-M18042302) according to the manufacturer's guidelines. Cells were washed with 1×DPBS then lysed by incubation with provided QuantiGene lysis buffer for 30 minutes at 50-55° C. Cell lysates were incubated for 18-24 hours at 55° C. with capture beads and probe set designed to specifically hybridize to mRNA from targets of interest. Genes included housekeeping genes (e.g., HPRT1 and GAPDH) used for the normalization of the results. After the 18-24 hour incubation signal was amplified utilizing branched DNA methodologies, according to the manufacturer's procedures (Affymetrix, Catalog #QGP-232-M18042302). After hybridization and wash steps assay plate was read on the Luminex 200 and data were expressed as Net Median Fluorescence Intensity. Data was then normalized to the Net Median Fluorescence Intensity of the housekeeping gene HPRT1 (Table 14).

[1] = TNFα+IFNγ 25 ng/mL, Drug Conc 25 nM
[2] = TNFα+IFNγ 25 ng/mL, Drug Conc 50 nM
[3] = TNFα+IFNγ 25 ng/mL, Drug Conc 100 nM
[4] = TNFα+IFNγ 25 ng/mL, Drug Conc 200 nM
[5] = TNFα (25 ng/mL) and IFNγ (25 ng/mL), 1st (lowest, likely 25 nM) of 4 drug conc
[6] = TNFα (25 ng/mL) and IFNγ (25 ng/mL), 2nd (likely 50 nM) of 4 drug conc
[7] = TNFα (25 ng/mL) and IFNγ (25 ng/mL), 3rd (likely 100 nM) of 4 drug conc
[8] = TNFα (25 ng/mL) and IFNγ (25 ng/mL), 4th (highest, likely 200 nM) of 4 drug conc
[9] = drug without TNFα/IFNγ stimulation
[10] = no stimulation, Drug Conc 200 nM

C[C@@H](O)c1nc2cnc3ccsc3c2n1[C@H]1CC[C@H](CC#N)OC1 [Cpd D, ((2R,5S)-5-{2-[(1R)-1-hydroxyethyl]-1H-imidazo[4,5-d]thieno[3,2-b]pyridin-1-yl}tetrahydro-2H-pyran-2-yl)acetonitrile]
AREG normalized expression MFI [1]: 725.6 ± 33.78
CCL17 normalized expression MFI [1]: 3.08 ± 0.64
CCL18 normalized expression MFI [1]: 1.89 ± 0.28
FLG normalized expression MFI [1]: 71.27 ± 11.09
IL6 normalized expression MFI [1]: 132.28 ± 7.41
IL8 normalized expression MFI [1]: 398.64 ± 22.41
IL17A normalized expression MFI [1]: 1.05 ± 0.18
IL22 normalized expression MFI [1]: 1.39 ± 0.23
IL23A normalized expression MFI [1]: 48.01 ± 2.69
IL31 normalized expression MFI [1]: 1.99 ± 0.4
ILIA normalized expression MFI [1]: 1269.66 ± 50.59
JAK1 normalized expression MFI [1]: 200.4 ± 9.84
JAK2 normalized expression MFI [1]: 108.89 ± 3.25
JAK3 normalized expression MFI [1]: 0.97 ± 0.18
LOR normalized expression MFI [1]: 23 ± 9.47
S100A7 normalized expression MFI [1]: 5.37 ± 1.3
S100A12 normalized expression MFI [1]: 1.31 ± 0.18
SERPINB3 normalized expression MFI [1]: 2 ± 0.3
SERPINB4 normalized expression MFI [1]: 2.78 ± 0.31
STAT1 normalized expression MFI [1]: 3156.82 ± 244.78
STAT3 normalized expression MFI [1]: 1572.76 ± 65.5
STAT4 normalized expression MFI [1]: 5.4 ± 0.45
STAT5A normalized expression MFI [1]: 20.12 ± 1.29
STAT5B normalized expression MFI [1]: 38.56 ± 2.02
STAT6 normalized expression MFI [1]: 1042.76 ± 29.23
AREG normalized expression MFI [2]: 778.42 ± 44.28
CCL17 normalized expression MFI [2]: 2.71 ± 0.41
CCL18 normalized expression MFI [2]: 2.16 ± 0.22
FLG normalized expression MFI [2]: 78.47 ± 10.63
IL6 normalized expression MFI [2]: 137.61 ± 5.87
IL8 normalized expression MFI [2]: 417.47 ± 21.97
IL17A normalized expression MFI [2]: 1.06 ± 0.15
IL22 normalized expression MFI [2]: 1.4 ± 0.21
IL23A normalized expression MFI [2]: 56.64 ± 3.44
IL31 normalized expression MFI [2]: 1.82 ± 0.44
ILIA normalized expression MFI [2]: 1336.95 ± 50.97
JAK1 normalized expression MFI [2]: 210.52 ± 7.73
JAK2 normalized expression MFI [2]: 106.83 ± 5.94
JAK3 normalized expression MFI [2]: 0.99 ± 0.2
LOR normalized expression MFI [2]: 28.28 ± 10.86
S100A7 normalized expression MFI [2]: 5.94 ± 1.23
S100A12 normalized expression MFI [2]: 1.11 ± 0.18
SERPINB3 normalized expression MFI [2]: 2.54 ± 0.33
SERPINB4 normalized expression MFI [2]: 3.2 ± 0.53
STAT1 normalized expression MFI [2]: 3009.6 ± 169.64
STAT3 normalized expression MFI [2]: 1543.4 ± 58.65
STAT4 normalized expression MFI [2]: 6.1 ± 0.36
STAT5A normalized expression MFI [2]: 22.69 ± 1.71
STAT5B normalized expression MFI [2]: 40.76 ± 1.91
STAT6 normalized expression MFI [2]: 1046.46 ± 29.12
AREG normalized expression MFI [3]: 703.3 ± 37.3
CCL17 normalized expression MFI [3]: 2.86 ± 0.3
CCL18 normalized expression MFI [3]: 1.74 ± 0.26
FLG normalized expression MFI [3]: 69.64 ± 9.33
IL6 normalized expression MFI [3]: 122.46 ± 5.35
IL8 normalized expression MFI [3]: 410.72 ± 29.84
IL17A normalized expression MFI [3]: 0.84 ± 0.16
IL22 normalized expression MFI [3]: 1.24 ± 0.22
IL23A normalized expression MFI [3]: 51.42 ± 2.55
IL31 normalized expression MFI [3]: 1.61 ± 0.35
ILIA normalized expression MFI [3]: 1244.96 ± 41.03
JAK1 normalized expression MFI [3]: 200.25 ± 8.15
JAK2 normalized expression MFI [3]: 102.64 ± 3.52
JAK3 normalized expression MFI [3]: 1.01 ± 0.17
LOR normalized expression MFI [3]: 21.29 ± 9.59
S100A7 normalized expression MFI [3]: 4.6 ± 1.68
S100A12 normalized expression MFI [3]: 1.12 ± 0.15
SERPINB3 normalized expression MFI [3]: 2 ± 0.26
SERPINB4 normalized expression MFI [3]: 2.64 ± 0.3
STAT1 normalized expression MFI [3]: 2991.9 ± 200.56
STAT3 normalized expression MFI [3]: 1549.17 ± 89.41
STAT4 normalized expression MFI [3]: 5.83 ± 0.34
STAT5A normalized expression MFI [3]: 19.54 ± 1.34
STAT5B normalized expression MFI [3]: 40.91 ± 2.17
STAT6 normalized expression MFI [3]: 985.1 ± 39.79
AREG normalized expression MFI [4]: 713.33 ± 37.27
CCL17 normalized expression MFI [4]: 2.34 ± 0.4
CCL18 normalized expression MFI [4]: 1.57 ± 0.3
FLG normalized expression MFI [4]: 72.06 ± 11.85
IL6 normalized expression MFI [4]: 119.49 ± 4.42
IL8 normalized expression MFI [4]: 367.56 ± 17.81
IL17A normalized expression MFI [4]: 0.82 ± 0.13
IL22 normalized expression MFI [4]: 1.28 ± 0.2
IL23A normalized expression MFI [4]: 53.83 ± 3.54
IL31 normalized expression MFI [4]: 1.51 ± 0.36
ILIA normalized expression MFI [4]: 1163.14 ± 26.71
JAK1 normalized expression MFI [4]: 190.53 ± 7.68
JAK2 normalized expression MFI [4]: 92.21 ± 2.9
JAK3 normalized expression MFI [4]: 0.86 ± 0.16
LOR normalized expression MFI [4]: 17 ± 7.28
S100A7 normalized expression MFI [4]: 3.77 ± 0.91
S100A12 normalized expression MFI [4]: 0.91 ± 0.14
SERPINB3 normalized expression MFI [4]: 1.69 ± 0.29
SERPINB4 normalized expression MFI [4]: 2.33 ± 0.38
STAT1 normalized expression MFI [4]: 3154.11 ± 139.56
STAT3 normalized expression MFI [4]: 1570.19 ± 51.51
STAT4 normalized expression MFI [4]: 5.42 ± 0.52
STAT5A normalized expression MFI [4]: 18.33 ± 1.83
STAT5B normalized expression MFI [4]: 36.62 ± 1.7
STAT6 normalized expression MFI [4]: 1013.25 ± 17.15
MFI, normalized expression of IYK2 [5]: 283.93 ± 8.16
MFI, normalized expression of IYK2 [6]: 307.36 ± 14.87
MFI, normalized expression of IYK2 [7]: 280.63 ± 10.46
MFI, normalized expression of IYK2 [8]: 283.28 ± 10.88
MFI, normalized expression of IYK2 [9]: 217.28 ± 10.09
MFI, normalized expression of TNF [5]: 26.07 ± 1.13
MFI, normalized expression of TNF [6]: 29.31 ± 2.52
MFI, normalized expression of TNF [7]: 27.59 ± 1.64
MFI, normalized expression of TNF [8]: 27.63 ± 2.3
MFI, normalized expression of TNF [9]: 1.59 ± 0.22
MFI, normalized expression of VEGFA [5]: 600.98 ± 13.99
MFI, normalized expression of VEGFA [6]: 582.24 ± 17.89
MFI, normalized expression of VEGFA [7]: 572.2 ± 19.67
MFI, normalized expression of VEGFA [8]: 541.01 ± 9.94
MFI, normalized expression of VEGFA [9]: 210.34 ± 9.72
AREG normalized expression MFI [10]: 251.8 ± 23.68
CCL17 normalized expression MFI [10]: 0.94 ± 0.14
CCL18 normalized expression MFI [10]: 0.95 ± 0.19
FLG normalized expression MFI [10]: 219.44 ± 34.83
IL6 normalized expression MFI [10]: 5.15 ± 0.31
IL8 normalized expression MFI [10]: 58.9 ± 5.89
IL17A normalized expression MFI [10]: 0.43 ± 0.08
IL22 normalized expression MFI [10]: 0.62 ± 0.11
IL23A normalized expression MFI [10]: 9.55 ± 1.15
IL31 normalized expression MFI [10]: 0.91 ± 0.23
ILIA normalized expression MFI [10]: 84.51 ± 7.04
JAK1 normalized expression MFI [10]: 171.53 ± 9.49
JAK2 normalized expression MFI [10]: 25.25 ± 1.04
JAK3 normalized expression MFI [10]: 0.53 ± 0.09
LOR normalized expression MFI [10]: 12.79 ± 4.84
S100A7 normalized expression MFI [10]: 3.69 ± 0.84
S100A12 normalized expression MFI [10]: 0.61 ± 0.11
SERPINB3 normalized expression MFI [10]: 1.5 ± 0.27
SERPINB4 normalized expression MFI [10]: 1.84 ± 0.42
STAT1 normalized expression MFI [10]: 549.79 ± 12.18
STAT3 normalized expression MFI [10]: 750.9 ± 27.68
STAT4 normalized expression MFI [10]: 3.75 ± 0.33
STAT5A normalized expression MFI [10]: 1.12 ± 0.19
STAT5B normalized expression MFI [10]: 54.64 ± 4.79
STAT6 normalized expression MFI [10]: 762.04 ± 9.44
